# Assay results published in patent US20220331303A1, “USE OF AN OREXIN 2 RECEPTOR AGONIST FOR THE TREATMENT OF EXCESSIVE SLEEPINESS” (Takeda Pharmaceutical Company Limited, priority 2019, published 2022).
# Where two headings read alike, the source gives them in different places.
# Test: Single-dose plasma PK of Compound A in subjects with OSA
# Assay type: in vivo, human
# Settings: for half-life: read-out: t½, z (converted)
# Experimental: The treatment periods began on Day 1 of Treatment Period 1 (Study Day 1) with Treatment Periods 2 and 3 commencing on Study Days 3 and 5, respectively. In the morning of Day 1 of Treatment Period 1, eligible subjects were randomized to 1 of the 6 sequence groups as listed in Table 36. After randomization, the subject was dosed in 3 treatment periods according to the order defined by the sequence group to which he/she was randomized. On Day 1 of each treatment period, Compound A or placebo was administered as a single 9-hour IV infusion commencing at approximately 08:00. The infusion was terminated at approximately 17:00. On Day 1 of each treatment period, four 40-minute maintenance of wakefulness test (MWT) sessions was performed at 2, 4, 6, and 8 hours after the start of the infusion. Subjects were required to stay awake in between the MWT sessions.
# On Day 1 of Treatment Period 1, all eligible subjects were randomized and received the first dose of study drug. Compound A or placebo was administered as a single 9-hour IV infusion commencing at approximately 08:00. On each dosing day (Study Days 1, 3, and 5), 40-minute MWT sessions were performed at 2, 4, 6, and 8 hours after the start of the infusion. There was a minimum 24-hour washout interval between the end of the infusion and the commencement of treatment in subsequent treatment periods to allow for complete elimination of the preceding treatment effect. The KSS and PVT were collected per the Schedule of Study Procedures. Blood samples for determination of Compound A plasma concentrations were collected predose and at specified time points postdose, Safety assessments were recorded. During the study, AEs were recorded, clinical laboratory tests, vital signs, and safety ECGs were obtained. Study Days 2, 4, and 6 were washout days. Subjects were discharged from the unit following completion of study exit procedures in the afternoon of Study Day 6 (Day 2 of Treatment Period 3). Subjects were contacted by telephone approximately 7 days (±2 days) following unit discharge for a safety check.
# Blood samples used for PK analysis of Compound A was collected according to Table 38.
# [1] = human, intravenous, 44 mg single dose, subjects with OSA, plasma, mean (PK set)
# [2] = human, intravenous, 112 mg single dose, subjects with OSA, plasma, mean (PK set)
smiles,measurement,setting,value
"COC(=O)N1CCC[C@H](NS(C)(=O)=O)[C@@H]1CO[C@H]1CC[C@@H](c2ccccc2)CC1 [Compound A, methyl (2R,3S)-3-((methylsulfonyl)amino)-2-(((cis-4-phenylcyclohexyl)oxy)methyl)piperidine-1-carboxylate]",Plasma Concentration Mean,"44 mg, 0 h After Start of Infusion",BLQ
same,Plasma Concentration Mean,"44 mg, 0.17 h From End of Infusion",53.69 ng/mL
same,Plasma Concentration Mean,"44 mg, 1 h After Start of Infusion",59.80 ng/mL
same,Plasma Concentration Mean,"44 mg, 1 h From End of Infusion",29.90 ng/mL
same,Plasma Concentration Mean,"44 mg, 3 h After Start of Infusion",92.43 ng/mL
same,Plasma Concentration Mean,"44 mg, 4 h From End of Infusion",15.22 ng/mL
same,Plasma Concentration Mean,"44 mg, 5 h After Start of Infusion",101.7 ng/mL
same,Plasma Concentration Mean,"44 mg, 7 h After Start of Infusion",86.37 ng/mL
same,Plasma Concentration Mean,"44 mg, 9 h After Start of Infusion",90.42 ng/mL
same,Plasma Concentration Mean,"44 mg, 15 h From End of Infusion (24 hours from start of infusion)",2.462 ng/mL
same,Ceoi,"112 mg single dose, subjects with OSA, plasma, mean (PK set)",211.6 ng/mL
same,Plasma Concentration Mean,"112 mg, 0 h After Start of Infusion",BLQ
same,Plasma Concentration Mean,"112 mg, 0.17 h From End of Infusion",139.3 ng/mL
same,Plasma Concentration Mean,"112 mg, 1 h After Start of Infusion",162.9 ng/mL
same,Plasma Concentration Mean,"112 mg, 1 h From End of Infusion",77.87 ng/mL
same,Plasma Concentration Mean,"112 mg, 3 h After Start of Infusion",208.7 ng/mL
same,Plasma Concentration Mean,"112 mg, 4 h From End of Infusion",34.12 ng/mL
same,Plasma Concentration Mean,"112 mg, 5 h After Start of Infusion",222.3 ng/mL
same,Plasma Concentration Mean,"112 mg, 7 h After Start of Infusion",208.9 ng/mL
same,Plasma Concentration Mean,"112 mg, 9 h After Start of Infusion",211.6 ng/mL
same,Plasma Concentration Mean,"112 mg, 15 h From End of Infusion (24 hours from start of infusion)",5.962 ng/mL
same,AUC(0-inf),[1],899 ng·h/mL
same,AUC(0-t),[1],884 ng·h/mL
same,Cmax,[1],102 ng/mL
same,clearance,[1],860 mL/min
same,concentration at 9 h,"human, intravenous, 44 mg single dose, subjects with OSA, plasma, mean (PK set), read-out: Ceoi",90.4 ng/mL
same,half-life,[1],228 min
same,AUC(0-inf),[2],2060 ng·h/mL
same,AUC(0-t),[2],2040 ng·h/mL
same,Cmax,[2],230 ng/mL
same,clearance,[2],954 mL/min
same,half-life,[2],236 min
same,Vd,"human, plasma, intravenous, 44 mg, 44 mg single dose, subjects with OSA, plasma, mean (PK set), read-out: Vss",129 L
same,Vd,"human, plasma, intravenous, 44 mg, 44 mg single dose, subjects with OSA, plasma, mean (PK set), read-out: Vz",278 L
same,Vd,"human, plasma, intravenous, 112 mg, 112 mg single dose, subjects with OSA, plasma, mean (PK set), read-out: Vss",139 L
same,Vd,"human, plasma, intravenous, 112 mg, 112 mg single dose, subjects with OSA, plasma, mean (PK set), read-out: Vz",319 L
